The assay concerns the target T1, IRAK4 (Homo sapiens, UniProt Q9NWZ3).
T1 sequence (Q9NWZ3 1-460): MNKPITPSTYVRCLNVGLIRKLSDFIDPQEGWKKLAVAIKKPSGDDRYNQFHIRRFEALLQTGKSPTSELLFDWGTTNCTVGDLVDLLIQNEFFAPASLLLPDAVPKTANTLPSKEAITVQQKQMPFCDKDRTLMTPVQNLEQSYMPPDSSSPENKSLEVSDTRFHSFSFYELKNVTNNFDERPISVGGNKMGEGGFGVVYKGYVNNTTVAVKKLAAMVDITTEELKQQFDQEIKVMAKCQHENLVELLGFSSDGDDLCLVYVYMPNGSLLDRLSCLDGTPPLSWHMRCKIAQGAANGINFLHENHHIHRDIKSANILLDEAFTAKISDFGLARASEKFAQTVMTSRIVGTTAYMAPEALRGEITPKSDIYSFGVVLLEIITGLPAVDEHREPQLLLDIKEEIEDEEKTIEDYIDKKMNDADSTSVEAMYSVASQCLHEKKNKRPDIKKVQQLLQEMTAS
As to the kind of experiment: OCI-LY-10 degradation assay (western blot, % IRAK4 degraded after 4 hours). The settings on record: OCI-LY10 cells; for OCI-LY10 % IRAK4 Degradation: IRAK4 degraded after 4 hours, western blot; for OCI-LY10 % IRAK4 Degradation (0.01 uM) / OCI-LY10 % IRAK4 Degradation (0.1 uM) / OCI-LY10 % IRAK4 Degradation (1 uM): 4 hours; for OCI-LY10 % IRAK4 Degradation (0.01 uM): 0.01 uM compound; for OCI-LY10 % IRAK4 Degradation (0.1 uM): 0.1 uM compound; for OCI-LY10 % IRAK4 Degradation (1 uM): 1 uM compound. It counts as cell-based. The arrangement: endogenous in cells; host or cells: OCI-LY10. Put shortly: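 OCI-LY10 cells (RPMI-1640, 20% FBS, 55 μM 2-ME) treated with compound at 0.003-10 μM final for 4 h at 37° C, then lysed in RIPA buffer. IRAK4 level read by fluorescent western blot (20-25 μg protein) and binned as % degraded: A >50%, B >20-50%, C <20%.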

The record followed here is US10874743B2, “IRAK degraders and uses thereof” (Kymera Therapeutics, Inc., priority 2017, dated 2020).

SMILES strings stand for the structures.

Regarding `NC(=O)[C@@H](O)C[C@H]1CCc2sc3ncnc(O[C@H]4CC[C@H](N5CCN(CCOCCOCCNc6cccc7c6C(=O)N(C6CCC(=O)NC6=O)C7=O)CC5)CC4)c3c21` (stereo partly drawn) [I-90, (2S)-3-[(8R)-1-[4-[4-[2-[2-[2-[[2-(2,6-dioxo-3-piperidyl)-1,3-dioxo-isoindolin-4-yl]amino]ethoxy]ethoxy]ethyl]piperazin-1-yl]cyclohexoxy]-7,8-dihydro-6H-cyclopenta[4,5]thieno[1,2-c]pyrimidin-8-yl]-2-hydroxy-propanamide], the “OCI-LY10 % IRAK4 Degradation” value is “B (>20-50% degradation)”.

As for `CN(CCCCCNCCCc1cccc2c1C(=O)N(C1CCC(=O)NC1=O)C2=O)C(=O)c1ccc(-n2cc(NC(=O)c3coc(-c4ccnc(NCC5CC5)c4)n3)c(C(N)=O)n2)cc1` (stereo not drawn) [I-315], the “OCI-LY10 % IRAK4 Degradation (0.01 uM)” value is recorded as “C (<20% degradation)”, the “OCI-LY10 % IRAK4 Degradation (0.1 uM)” value is “C (<20% degradation)” and the “OCI-LY10 % IRAK4 Degradation (1 uM)” value is “B (>20-50% degradation)”.

Turning to `O=C1CCC(N2C(=O)c3cccc(NCCNCCOCCNCc4ccc(-n5cc(NC(=O)c6coc(-c7ccnc(NCC8CC8)c7)n6)c(C(F)(F)F)n5)cc4)c3C2=O)C(=O)N1` (stereo not drawn) [I-307], the “OCI-LY10 % IRAK4 Degradation (0.01 uM)” value was “C (<20% degradation)”, the “OCI-LY10 % IRAK4 Degradation (0.1 uM)” value was “C (<20% degradation)” and the “OCI-LY10 % IRAK4 Degradation (1 uM)” value is “C (<20% degradation)”.

`CN(CCOCCOCCNc1cccc2c1C(=O)N(C1CCC(=O)NC1=O)C2=O)C(=O)[C@H]1C[C@H](NC(=O)c2cnc(Nc3ccc4cnccc4n3)cc2NC2CC2)C1` (stereo partly drawn) [I-44, 6-((1,6-naphthyridin-2-yl)amino)-4-(cyclopropylamino)-N-((1r,3r)-3-((2-(2-(2-((2-(2,6-dioxopiperidin-3-yl)-1,3-dioxoisoindolin-4-yl)amino)ethoxy)ethoxy)ethyl)(methyl)carbamoyl)cyclobutyl)nicotinamide]: the “OCI-LY10 % IRAK4 Degradation” value was “B (>20-50% degradation)”.

Regarding `CC[C@@H]1[C@H](F)C(=O)N[C@@H]1COc1ncc(C#Cc2ccc(OCCOCCOCCOCCNc3cccc4c3C(=O)N(C3CCC(=O)NC3=O)C4=O)cc2)c2cc(C(N)=O)c(OC)cc12` (stereo partly drawn) [I-425, 4-[2-[4-[2-[2-[2-[2-[[2-(2,6-Dioxo-3-piperidyl)-1,3-dioxo-isoindolin-4-yl]amino]ethoxy]ethoxy]ethoxy]ethoxy]phenyl]ethynyl]-1-[[(2S,3S,4S)-3-ethyl-4-fluoro-5-oxo-pyrrolidin-2-yl]methoxy]-7-methoxy-isoquinoline-6-carboxamide], the “OCI-LY10 % IRAK4 Degradation (0.01 uM)” value is “B (>20-50% degradation)”, the “OCI-LY10 % IRAK4 Degradation (0.1 uM)” value is reported as “A (>50% degradation)” and the “OCI-LY10 % IRAK4 Degradation (1 uM)” value was “A (>50% degradation)”.

As to `CN(CCOCCOCCOCCOCCNc1cccc2c1C(=O)N(C1CCC(=O)NC1=O)C2=O)C(=O)[C@H]1C[C@H](NC(=O)c2cnc(-n3ncc4cc(C#N)cnc43)cc2NC2CC2)C1` (stereo partly drawn) [I-39], the “OCI-LY10 % IRAK4 Degradation” value is reported as “C (<20% degradation)”.

For `CC(C)(OCCOCCNCCOCCNc1cccc2c1C(=O)N(C1CCC(=O)NC1=O)C2=O)C(F)CNC(=O)c1cnc(-n2ncc3cc(C#N)cnc32)cc1NC1CC1` (stereo not drawn) [I-131], the “OCI-LY10 % IRAK4 Degradation” value is given as “C (<20% degradation)”.

Take `N#Cc1cnc2c(cnn2-c2cc(NC3CC3)c(C(=O)NCC(F)COCCOCCOCCOCCNc3cccc4c3C(=O)N(C3CCC(=O)NC3=O)C4=O)cn2)c1` (stereo not drawn) [I-72]: the “OCI-LY10 % IRAK4 Degradation” value is reported as “C (<20% degradation)”.

For the molecule `CC(OCCOCCNc1cccc2c1C(=O)N(C1CCC(=O)NC1=O)C2=O)C(F)CNC(=O)c1cnc(-n2ncc3cc(C#N)cnc32)cc1NC1CC1` (stereo not drawn) [I-85], the “OCI-LY10 % IRAK4 Degradation” value is given as “C (<20% degradation)”.

`O=C1CCC(N2C(=O)c3cccc(NCCOCCN4CCO[C@H](CNCc5ccc(-n6cc(NC(=O)c7coc(-c8ccnc(NCC9CC9)c8)n7)c(C(F)F)n6)cc5)C4)c3C2=O)C(=O)N1` (stereo partly drawn) [I-329]: the “OCI-LY10 % IRAK4 Degradation (0.01 uM)” value is “B (>20-50% degradation)”, the “OCI-LY10 % IRAK4 Degradation (0.1 uM)” value is “A (>50% degradation)” and the “OCI-LY10 % IRAK4 Degradation (1 uM)” value is recorded as “A (>50% degradation)”.

As to `Cc1ncsc1-c1ccc(CNC(=O)[C@@H]2C[C@@H](O)CN2C(=O)[C@@H](NC(=O)COCCOCCOCCOCCOCCNC(=O)C(F)CNC(=O)c2cnc(Nc3ccc4cnccc4n3)cc2NC2CC2)C(C)(C)C)cc1` (stereo partly drawn) [I-207], the “OCI-LY10 % IRAK4 Degradation” value is “C (<20% degradation)”.

Regarding `CC(OCCOCCOCCOCCOCCNc1cccc2c1C(=O)N(C1CCC(=O)NC1=O)C2=O)C(F)CNC(=O)c1cnc(-n2ncc3cc(C#N)cnc32)cc1NC1CC1` (stereo not drawn) [I-66], the “OCI-LY10 % IRAK4 Degradation” value is on record as “C (<20% degradation)”.

`O=C1CCC(N2C(=O)c3cccc(NC4CCN(CCOCCNCc5ccc(-n6cc(NC(=O)c7coc(-c8ccnc(NCC9CC9)c8)n7)c(C(F)F)n6)cc5)CC4)c3C2=O)C(=O)N1` (stereo not drawn) [I-385]: the “OCI-LY10 % IRAK4 Degradation (0.01 uM)” value is given as “C (<20% degradation)”, the “OCI-LY10 % IRAK4 Degradation (0.1 uM)” value is “B (>20-50% degradation)” and the “OCI-LY10 % IRAK4 Degradation (1 uM)” value is recorded as “B (>20-50% degradation)”.

For `NC(=O)c1nn(-c2ccc(C(=O)NCCOCCOCCNc3cccc4c3C(=O)N(C3CCC(=O)NC3=O)C4=O)cc2)cc1NC(=O)c1coc(-c2ccnc(NCC3CC3)c2)n1` (stereo not drawn) [I-138], the “OCI-LY10 % IRAK4 Degradation” value was “A (>50% degradation)”.

`O=C1CCC(N2C(=O)c3ccc(CCCOCCOCCNCc4ccc(-n5cc(NC(=O)c6coc(-c7ccnc(NCC8CC8)c7)n6)c(C(F)(F)F)n5)cc4)cc3C2=O)C(=O)N1` (stereo not drawn) [I-187, 2-[2-(Cyclopropylmethylamino)-4-pyridyl]-N-[1-[4-[[2-[2-[3-[2-(2,6-dioxo-3-piperidyl)-1,3-dioxo-isoindolin-5-yl]propoxy]ethoxy]ethylamino]methyl]phenyl]-3-(trifluoromethyl)pyrazol-4-yl]oxazole-4-carboxamide]: the “OCI-LY10 % IRAK4 Degradation” value is recorded as “B (>20-50% degradation)”.

In the case of `CN(CCCc1cccc2c1C(=O)N(C1CCC(=O)NC1=O)C2=O)Cc1ccc(-n2cc(NC(=O)c3coc(-c4ccncc4)n3)c(C(N)=O)n2)cc1` (stereo not drawn) [I-356], the “OCI-LY10 % IRAK4 Degradation (0.01 uM)” value was “C (<20% degradation)”, the “OCI-LY10 % IRAK4 Degradation (0.1 uM)” value is “C (<20% degradation)” and the “OCI-LY10 % IRAK4 Degradation (1 uM)” value is recorded as “C (<20% degradation)”.

With `CC(CNc1cccc2c1C(=O)N(C1CCC(=O)NC1=O)C2=O)OCCOCCOCC(F)CNC(=O)c1cnc(Nc2ccc3cnccc3n2)cc1NC1CC1` (stereo not drawn) [I-93, 4-(Cyclopropylamino)-N-[3-[2-[2-[2-[[2-(2,6-dioxo-3-piperidyl)-1,3-dioxo-isoindolin-4-yl]amino]-1-methyl-ethoxy]ethoxy]ethoxy]-2-fluoro-propyl]-6-(1,6-naphthyridin-2-ylamino)pyridine-3-carboxamide], the “OCI-LY10 % IRAK4 Degradation” value is reported as “C (<20% degradation)”.

For the molecule `CC(C)(OCCCOCCCNc1cccc2c1C(=O)N(C1CCC(=O)NC1=O)C2=O)C(F)CNC(=O)c1cnc(-n2ncc3cc(C#N)cnc32)cc1NC1CC1` (stereo not drawn) [I-86], the “OCI-LY10 % IRAK4 Degradation” value is given as “C (<20% degradation)”.

In the case of `NC(=O)c1nn(-c2ccc(C(=O)NCCOCCOCCNc3cccc4c3C(=O)N(C3CCC(=O)NC3=O)C4=O)cc2)cc1NC(=O)c1coc(-c2ccncc2)n1` (stereo not drawn) [I-140], the “OCI-LY10 % IRAK4 Degradation” value is reported as “B (>20-50% degradation)”.

On to `N#Cc1cnc2c(cnn2-c2cc(NC3CC3)c(C(=O)NCC(F)COCCNCCOCCNc3cccc4c3C(=O)N(C3CCC(=O)NC3=O)C4=O)cn2)c1` (stereo not drawn) [I-94, 6-(5-Cyano-1H-pyrazolo[3,4-b]pyridin-1-yl)-4-(cyclopropylamino)-N-(3-(2-((2-(2-((2-(2,6-dioxopiperidin-3-yl)-1,3-dioxoisoindolin-4-yl)amino)ethoxy)ethyl)amino)ethoxy)-2-fluoropropyl)nicotinamide], for which the “OCI-LY10 % IRAK4 Degradation” value is given as “B (>20-50% degradation)”.

As to `CC(OCCNc1cccc2c1C(=O)N(C1CCC(=O)NC1=O)C2=O)C(F)CNC(=O)c1cnc(-n2ncc3cc(C#N)cnc32)cc1NC1CC1` (stereo not drawn) [I-83], the “OCI-LY10 % IRAK4 Degradation” value is “C (<20% degradation)”.

In the case of `N[C@@H]1CCCC[C@@H]1Nc1ccn2nc(-c3cn(-c4ccc(C(=O)NCCOCCOCCNc5cccc6c5C(=O)N(C5CCC(=O)NC5=O)C6=O)cc4)nc3C(F)F)cc2n1` (stereo partly drawn) [I-142], the “OCI-LY10 % IRAK4 Degradation” value is on record as “B (>20-50% degradation)”.

Take `NC(=O)c1nn(-c2ccc(C(=O)NCCOCCOCCCc3cccc4c3C(=O)N(C3CCC(=O)NC3=O)C4=O)cc2)cc1NC(=O)c1coc(-c2ccnc(NCC(F)(F)F)c2)n1` (stereo not drawn) [I-147]: the “OCI-LY10 % IRAK4 Degradation” value is recorded as “A (>50% degradation)”.

As for `CC[C@@H]1[C@H](F)C(=O)N[C@@H]1COc1ncc(C#Cc2ccc(C(=O)NCCOCCOCCOCCNc3cccc4c3C(=O)N(C3CCC(=O)NC3=O)C4=O)cc2)c2cc(C(N)=O)c(OC)cc12` (stereo partly drawn) [I-126, 4-[2-[4-[2-[2-[2-[2-[[2-(2,6-Dioxo-3-piperidyl)-1,3-dioxo-isoindolin-4-yl]amino]ethoxy]ethoxy]ethoxy]ethylcarbamoyl]phenyl]ethynyl]-1-[[(2S,3S,4S)-3-ethyl-4-fluoro-5-oxo-pyrrolidin-2-yl]methoxy]-7-methoxy-isoquinoline-6-carboxamide], the “OCI-LY10 % IRAK4 Degradation” value is reported as “B (>20-50% degradation)”.
